Results: patent US11098029B2, “5-alkyl pyrrolidine orexin receptor agonists” (Merck Sharp & Dohme Corp., priority 2019, dated 2021)

Target: human OX2R (Homo sapiens (Human), UniProt O43614)
Assay: IPOne (IP-One, Cisbio) orexin receptor agonist assay in CHO cells expressing human OX2R
Conditions: for Emax: CHO; for Emax / Emax (%): hOX2R_IP, percentage of mean max effect of a reference compound at 1 uM (100% activity vs Orexin A)
Experimental: Both the OX1R and/or OX2R G-coupled protein receptors (GPCRs) couple through the Gaq signaling pathway, which ultimately promotes calcium mobilization via inositol triphosphate (IP3) production.
In a typical experiment, the OX1 and OX2 receptor agonist activity is determined in accordance with the following general experimental method. Chinese hamster ovary (CHO) cells expressing human OX1R and/or the human OX2R were grown in Iscove's modified DMEM containing glutaMAX®, 1% G418, 100 U/mL penicillin, 100 μg/mL streptomycin and 10% heat-inactivated qualified fetal bovine serum (FBS). […] During this incubation, IP-one detection reagents were prepared (38:1:1 lysis buffer:D2:AB-cryptate reagents).
For each compound, data were fit to a four parameter logistic fit (ActivityBase software) and the EC50 was reported as the inflection point of the resulting curve.

human OX2R, sequence (O43614 whole entry): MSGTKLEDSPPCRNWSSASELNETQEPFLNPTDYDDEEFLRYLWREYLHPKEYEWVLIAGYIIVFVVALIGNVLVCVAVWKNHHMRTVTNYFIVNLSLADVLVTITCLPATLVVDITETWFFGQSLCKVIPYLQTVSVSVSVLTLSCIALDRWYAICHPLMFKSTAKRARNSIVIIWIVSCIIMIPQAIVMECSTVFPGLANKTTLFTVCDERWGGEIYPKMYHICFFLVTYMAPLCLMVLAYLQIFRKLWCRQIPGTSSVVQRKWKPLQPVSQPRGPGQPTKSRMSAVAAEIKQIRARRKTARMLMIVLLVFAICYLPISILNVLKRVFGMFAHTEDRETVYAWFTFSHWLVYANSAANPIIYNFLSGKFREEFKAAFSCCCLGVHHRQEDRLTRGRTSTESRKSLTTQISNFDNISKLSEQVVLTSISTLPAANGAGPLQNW

Emax [%] | Emax (%) | IC50 [nM] | SMILES
100 | – | – | CC(C)C1CCC(OC[C@H]2[C@@H](NS(=O)(=O)N(C)C)C[C@@H](C)N2C(=O)OCC(F)F)CC1 (stereo partly drawn) [Example 14, 2,2-difluoroethyl (2R,3S,5R)-3-((N,N-dimethylsulfamoyl)amino)-2-(((4-isopropylcyclohexyl)oxy)meth-yl)-5-methylpyrrolidine-1-carboxylate]
– | 102 | – | C[C@@H]1C[C@H](NS(=O)(=O)N(C)C)[C@H](CO[C@H]2CC[C@@H](c3ccccc3)CC2)N1C(=O)OCC(F)F [Example 17, 2,2-difluoroethyl (2R,3S,5R)-3-((N,N-dimethylsulfamoyl)amino)-5-methyl-2-((((1s,4S)-4-phenylcyclohexyl)oxy)methyl)pyrrolidine-1-carboxylate]
101 | – | – | CCc1ccccc1[C@H]1CC[C@@H](OC[C@H]2[C@@H](NS(=O)(=O)N(C)C)C[C@@H](C)N2C(=O)OC)CC1 [Example 65, Methyl (2R,3S,5R)-3-((N,N-dimethylsulfamoyl)amino)-2-((((1s,4S)-4-(2-ethylphenyl)cyclohexyl)oxy)methyl)-5-methylpyrrolidine-1-carboxylate]
100 | – | 7.07 | CNS(=O)(=O)N[C@H]1C[C@@H](C)N(C(=O)OC(C)C)[C@H]1COC1CCN(c2ncccn2)CC1 [Example 38, isopropyl (2R,3S,5R)-5-methyl-3-((N-methylsulfamoyl)amino)-2-(((1-(pyrimidin-2-yl)piperidin-4-yl)oxy)methyl)pyrrolidine-1-carboxylate]
101 | – | – | CCOC(=O)N1[C@H](C)C[C@H](NS(=O)(=O)N(C)C)[C@@H]1COC1CCC(C(C)C)CC1 (stereo partly drawn) [Example 8, ethyl (2R,3S,5R)-3-((N,N-dimethylsulfamoyl)amino)-2-(((4-isopropylcyclohexyl)oxy)meth-yl)-5-methylpyrrolidine-1-carboxylate]
105 | – | – | COCCS(=O)(=O)N[C@H]1C[C@@H](C)N(C(=O)OC)[C@H]1COC1CCC(c2cccc(F)c2)CC1 (stereo partly shown) [Example 61]
– | 99 | – | COC(=O)N1[C@H](C)C[C@H](NS(=O)(=O)CC(F)F)[C@@H]1CO[C@H]1CC[C@@H](c2cccc(F)c2)CC1 [Example 60, Methyl (2R,3S,5R)-3-((2,2-difluoroethyl)sulfonamido)-2-((((1s,4S)-4-(3-fluorophenyl)-cyclohexyl)oxy)methyl)-5-methylpyrrolidine-1-carboxylate]
101 | – | – | CC(C)OC(=O)N1[C@H](C)C[C@H](NS(=O)(=O)N(C)C)[C@@H]1COC1CCN(c2ncc(F)cn2)CC1 [Example 39, isopropyl (2R,3S,5R)-3-((N,N-dimethylsulfamoyl)amino)-2-(((1-(5-fluoropyrimidin-2-yl)piperidin-4-yl)oxy)methyl)-5-methylpyrrolidine-1-carboxylate]
101 | – | – | CC[C@@H]1C[C@H](NS(C)(=O)=O)[C@H](CO[C@H]2CC[C@@H](c3ccccc3)CC2)N1C(=O)OC [Example 46, methyl (2R,3S,5R)-5-ethyl-3-(methylsulfonamido)-2-((((CIS)-4-phenylcyclohexyl)oxy)methyl)pyrrolidine-1-carboxylate]
100 | – | – | COC(=O)N1[C@H](C)C[C@H](NS(=O)(=O)N(C)C)[C@@H]1CO[C@@H]1CC[C@H](c2cccc(F)c2)CC1F (stereo partly drawn) [Example 31, methyl (2R,3S,5R)-3-((N,N-dimethylsulfamoyl)amino)-2-((((1R,4S)-2-fluoro-4-(3-fluorophenyl)cyclohexyl)oxy)methyl)-5-methylpyrrolidine-1-carboxylate]
92 | – | 2150 | COC(=O)N1[C@H](C)C[C@H](NS(C)(=O)=O)[C@@H]1COC1CCC(c2ccccc2)CC1OC (stereo partly drawn) [Example 33, methyl (2R,3S,5R)-2-(((2-methoxy-4-phenylcyclohexyl)oxy)methyl)-5-methyl-3-(methylsulfonamido)pyrrolidine-1-carboxylate]
102 | – | – | COC(=O)N1[C@H](C)C[C@H](NS(=O)(=O)CF)[C@@H]1CO[C@H]1CC[C@@H](c2ccccc2)CC1 [Example 29, methyl (2R,3S,5R)-3-((fluoromethyl)sulfonamido)-5-methyl-2-((((1r,4R)-4-phenylcyclohexyl)oxy)meth-yl)pyrrolidine-1-carboxylate]
98 | – | – | COC(=O)N1[C@H](C)C[C@H](NS(C)(=O)=O)[C@@H]1COC1CCC(C(C)C)CC1 (stereo partly drawn) [Example 3, methyl (2R,3S,5R)-2-(((4-isopropylcyclohexyl)oxy)methyl)-5-methyl-3-(methylsulfonamido)pyrrolidine-1-carboxylate]
– | 100 | – | COC(=O)N1[C@H](C)C[C@H](NS(=O)(=O)N(C)C)[C@@H]1CO[C@H]1CC[C@@H](c2ccc(C#N)c(C)c2)CC1 [Example 63, Methyl (2R,3S,5R)-2-((((1s,4S)-4-(4-cyano-3-methylphenyl)cyclohexyl)oxy)methyl)-3-((N,N-dimethylsulfamoyl)amino)-5-methylpyrrolidine-1-carboxylate]
– | 102 | – | COC(=O)N1[C@H](C)C[C@H](NS(=O)(=O)N(C)CC#N)[C@@H]1CO[C@H]1CC[C@@H](c2cccc(F)c2)CC1 [Example 53, Methyl (2R,3S,5R)-3-((N-(cyanomethyl)-N-methylsulfamoyl)amino)-2-((((1s,4S)-4-(3-fluorophenyl)cyclohexyl)oxy)methyl)-5-methylpyrrolidine-1-carboxylate]
101 | – | – | COC(=O)N1[C@H](C)C[C@H](NS(=O)(=O)N(C)C)[C@@H]1CO[C@H]1CC[C@@H](c2cc(F)ccc2F)CC1 [Example 21, methyl (2R,3S,5R)-2-((((1R,4R)-4-(2,5-difluorophenyl)cyclohexyl)oxy)methyl)-3-((N,N-dimethylsulfa-moyl)amino)-5-methylpyrrolidine-1-carboxylate]
101 | – | – | CC(C)C1CCC(OC[C@H]2[C@@H](NS(C)(=O)=O)C[C@@H](C)N2C(=O)OCC(F)F)CC1 (stereo partly drawn) [Example 9, 2,2-difluoroethyl (2R,3S,5R)-2-(((4-isopropylcyclohexyl)oxy)meth-yl)-5-methyl-3-(methylsulfonamido)pyrrolidine-1-carboxylate]
99 | – | 224 | COC(=O)N1[C@@H](CO[C@H]2CC[C@@H](c3ccccc3)CC2)[C@@H](NS(C)(=O)=O)CC12CC2 (relative stereo) [Example 41, methyl (CIS)-6-(methylsulfonamido)-5-((((CIS)-4-phenylcyclohexyl)oxy)methyl)-4-azaspiro[2.4]heptane-4-carboxylate]
99 | – | – | COC(=O)N1[C@H](C)C[C@H](NS(C)(=O)=O)[C@@H]1COC1CCC(CC(F)(F)F)CC1 (stereo partly drawn) [Example 12, methyl (2R,3S,5R)-5-methyl-3-(methylsulfonamido)-2-(((4-(2,2,2-trifluoroethyl)cyclohexyl)oxy)methyl)pyrrolidine-1-carboxylate]
103 | – | – | CC[C@@H]1C[C@H](NS(C)(=O)=O)[C@H](CO[C@H]2CC[C@@H](c3ccccc3)CC2)N1C(=O)OC (racemic) [Example 43, methyl (2R,3S,5R)-5-ethyl-3-(methylsulfonamido)-2-((((CIS)-4-phenylcyclohexyl)oxy)methyl)-pyrrolidine-1-carboxylate]
62 | – | – | CC[C@H]1C[C@@H](NS(C)(=O)=O)[C@@H](CO[C@H]2CC[C@@H](c3ccccc3)CC2)N1C(=O)OC [Example 45, methyl (2S,3R,5S)-5-ethyl-3-(methylsulfonamido)-2-((((CIS)-4-phenylcyclohexyl)oxy)methyl)-pyrrolidine-1-carboxylate]
102 | – | – | COC(=O)N1[C@H](C)C[C@H](NS(C)(=O)=O)[C@@H]1CO[C@H]1CC[C@@H](c2c(F)ccc(F)c2F)CC1 [Example 28, methyl (2R,3S,5R)-5-methyl-3-(methylsulfonamido)-2-((((1r,4R)-4-(2,3,6-trifluorophenyl)-cyclohexyl)oxy)methyl)pyrro-lidine-1-carboxylate]
– | 101 | – | COC(=O)N1[C@H](C)C[C@H](NS(=O)(=O)N(C)CCO)[C@@H]1CO[C@H]1CC[C@@H](c2cccc(F)c2)CC1 [Example 56, methyl (2R,3S,5R)-2-((((1s,4S)-4-(3-fluorophenyl)cyclohex-yl)oxy)methyl)-3-((N-(2-hydroxyethyl)-N-methylsulfamoyl)amino)-5-methylpyrrolidine-1-carboxylate]
102 | – | 7.8 | COC(=O)N1[C@H](CC#N)C[C@H](NS(=O)(=O)N(C)C)[C@@H]1CO[C@H]1CC[C@@H](c2cccc(F)c2)CC1 [Example 52, methyl (2R,3S,5S)-5-(cyanomethyl)-3-((N,N-dimethylsulfamoyl)amino)-2-((((CIS)-4-(3-fluorophenyl)cyclohexyl)oxy)methyl)pyrrolidine-1-carboxylate]
– | 102 | – | COC(=O)N1[C@H](C)C[C@H](NS(C)(=O)=O)[C@@H]1CO[C@H]1CC[C@@H](C(C)C)CC1 [Example 4, methyl (2R,3S,5R)-2-((((1s,4S)-4-isopropylcyclohexyl)oxy)methyl)-5-methyl-3-(methylsulfonamido)pyrrolidine-1-carboxylate]
102 | – | 12.5 | COC(=O)N1[C@H](C)C[C@H](NS(=O)(=O)N(C)C)[C@@H]1CO[C@@H]1CC=C(c2cccc(F)c2)CC1 [Example 35, methyl (2R,3S,5R)-3-((N,N-dimethylsulfamoyl)amino)-2-((((S)-3′-fluoro-2,3,4,5-tetrahydro-[1,1′-biphenyl]-4-yl)oxy)methyl)-5-methylpyrrolidine-1-carboxylate]
101 | – | 15.2 | CCNC(=O)N1[C@H](C)C[C@H](NS(C)(=O)=O)[C@@H]1COC1CCC(C(C)C)CC1 (stereo partly drawn) [Example 1, (2R,3S,5R)—N-ethyl-2-(((4-isopropylcyclohexyl)oxy)methyl)-5-methyl-3-(methylsulfonamido)-pyrrolidine-1-carboxamide]

SMILES | Emax [%] | Emax (%) | IC50 [nM]
CNS(=O)(=O)N[C@H]1C[C@@H](C)N(C(=O)OC(C)C)[C@H]1COC1CCC(C(C)C)CC1 (stereo partly drawn) [Example 6, isopropyl (2R,3S,5R)-2-(((4-isopropylcyclohexyl)oxy)meth-yl)-5-methyl-3-((N-methylsulfamoyl)amino) pyrrolidine-1-carboxylate] | – | 100 | –
